Test results as given in patent US20020065317A1, “Calcium salt compositions having improved solubility and method for preparing them” (priority 1998, published 2002).

Experiment: Dissolution time: time required fully to dissolve 1 gram of powder into 100 ml of water
Assay type: physicochemical
Conditions: 1 gram into 100 ml of water at 20° C.; only with vigorous stirring
Description: The dissolution rate of the resulting powder is defined by the dissolution time, viz. the time required fully to dissolve 1 gram thereof into 100 ml of water at 20° C. The dissolution time of the calcium salts compositions of the invention is not more than 60 seconds and preferably not more than 10 seconds. The dissolution time of the powder obtained according to Example 1 is found to be 3.036 sec, while the dissolution time of the untreated calcium gluconate granules is 1.3 minutes, and this only when vigorous stirring is carried out to hasten as much as possible the dissolution. Therefore the powder of Example 1 is an instantly soluble powder, as this expression is to be construed in this, specification.

Substance: calcium gluconate
- dissolution time: 1.3 min
